We go through 1 compound from US20140080795A1, “NRF2 Deficiency Influences Susceptibility to Steroid Resistance via HDAC2 Reduction” (University of Rochester, priority 2010, published 2014).

For experiment [1], the system named is MCP-1. Briefly: LPS-induced lung inflammation in mice: MCP-1 levels in lung tissue by ELISA. It is filed as in vivo, mouse. The note with it: Nrf2-/- mice, budesonide 1 and 3 mg/kg pretreatment.
Description: Briefly, age-matched WT, Nrf2−/− and HDAC2−/− were exposed to aerosolized Escherichia coli LPS (1 mg/ml) for 8 minutes. Aerosolized saline-exposed mice were used as controls, and animals were sacrificed at 24 h post last exposure. […] Monocyte chemotactic protein 1 (MCP-1) levels were measured from mouse lung soluble protein by enzyme-linked immunosorbent assay (ELISA) with the duo-antibody kit (R & D Systems). Results were normalized to protein concentration per sample. […] Briefly, age-matched wild-type, Nrf2−/− and HDAC2−/− were exposed to aerosolized Escherichia coli LPS diluted to 1 mg/ml for 8 minutes. Aerosolized saline-exposed mice were used as controls and animals were sacrificed at 24 h post last exposure (Yao et al., Am J Respir Cell Mol Biol 39: 7-18 (2008)). […] Monocyte chemotactic protein 1 (MCP-1) levels were measured from mouse lung soluble protein by enzyme-linked immunosorbent assay (ELISA) with the MCP-1 duo-antibody kit (R & D Systems). Results were normalized to protein concentration per sample.
Experiment [2] concerns KC. Briefly: LPS-induced lung inflammation in mice: KC levels in lung homogenates by ELISA. The class given is in vivo, mouse. (ELISA stands for enzyme-linked immunosorbent assay.)

As for `CCCC1O[C@@H]2C[C@H]3[C@@H]4CCC5=CC(=O)C=C[C@]5(C)[C@H]4[C@@H](O)C[C@]3(C)[C@]2(C(=O)CO)O1` (stereo partly drawn) [budesonide], the “LPS-induced release of MCP-1 in lung” value in experiment [1] is given as “no inhibitory effect”. Moreover, the “KC release in lung” value in experiment [2] (HDAC2-/- mice, budesonide 3 mg/kg pretreatment) is “no significant effect”. Moreover, in experiment [2] (Nrf2-/- mice, budesonide 1 and 3 mg/kg pretreatment), the “LPS-induced release of KC in lung” value is reported as “no inhibitory effect”.
